Values of other authors as cited in US4127532A, “Novel heptapeptides, intermediates therefor, and compositions and methods employing said heptapeptides” (priority 1977, dated 1978).

How the values were obtained:
[1] = injected directly into the brain of the rat
[2] = test system: partially purified brain opiate receptor sites

Substance: H-Tyr-Gly-Gly-Phe-Met-OH [methionine enkephalin]
- activity in bioassays for opiate activity (opiate activity): very active
- analgesic activity [1]: weak analgesic agent of short duration
- binding to partially purified brain opiate receptor sites [2]: binds stereo-specifically
